Measured values as given in PubChem BioAssay (NCI).
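GI50 is the concentration that inhibits growth by half. Definition used: TGI = concentration required for complete inhibition of growth.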

Experiments:
Experiment in all cases: DTP human tumour cell line panel, 384-well format
SR leukemia = system: SR leukemia
HOP-62 NSCLC = system: HOP-62 NSCLC
OVCAR-8 ovarian = system: OVCAR-8 ovarian
CCRF-CEM leukemia = system: CCRF-CEM leukemia
IGROV1 ovarian = system: IGROV1 ovarian
HL-60(TB) leukemia = system: HL-60(TB) leukemia
UO-31 renal = system: UO-31 renal
UACC-257 melanoma = system: UACC-257 melanoma
HS 578T breast = system: HS 578T breast
MDA-MB-435 melanoma = system: MDA-MB-435 melanoma
NCI-H460 NSCLC = system: NCI-H460 NSCLC
OVCAR-4 ovarian = system: OVCAR-4 ovarian
NCI-H322M lung = system: NCI-H322M lung
OVCAR-5 ovarian = system: OVCAR-5 ovarian
NCI-H23 lung = system: NCI-H23 lung
MCF7 breast = system: MCF7 breast
DU-145 prostate = system: DU-145 prostate
CAKI-1 renal = system: CAKI-1 renal
UACC-62 melanoma = system: UACC-62 melanoma
SF-268 CNS = system: SF-268 CNS
RXF 393 renal = system: RXF 393 renal
786-0 renal = system: 786-0 renal
OVCAR-3 ovarian = system: OVCAR-3 ovarian
K-562 leukemia = system: K-562 leukemia
NCI-H522 lung = system: NCI-H522 lung
TK-10 renal = system: TK-10 renal
A498 renal = system: A498 renal
PC-3 prostate = system: PC-3 prostate
HCC-2998 colon = system: HCC-2998 colon

## CN1C(=O)C(C)(C)Oc2c(-c3cn(C)c(=O)c4[nH]ccc34)cc(S(C)(=O)=O)cc21
SR leukemia
  GI50: 72.8 nM
  TGI: 531 nM
HOP-62 NSCLC
  GI50: 287 nM
  TGI: 2270 nM
OVCAR-8 ovarian
  GI50: 235 nM
  TGI: 1190 nM
CCRF-CEM leukemia
  GI50: 174 nM
  TGI: 1390 nM
IGROV1 ovarian
  GI50: 329 nM
  TGI: 1390 nM
HL-60(TB) leukemia
  GI50: 48.5 nM
  TGI: 184 nM
UO-31 renal
  GI50: 2560 nM
  TGI: > 100000 nM
UACC-257 melanoma
  GI50: 206 nM
  TGI: 1330 nM
HS 578T breast
  GI50: 65.2 nM
  TGI: 349 nM
MDA-MB-435 melanoma
  GI50: 868 nM
  TGI: 12700 nM
NCI-H460 NSCLC
  GI50: 1160 nM
  TGI: 10400 nM
OVCAR-4 ovarian
  GI50: 114 nM
  TGI: 346 nM
NCI-H322M lung
  GI50: 441 nM
  TGI: 3900 nM
OVCAR-5 ovarian
  GI50: 271 nM
  TGI: 2240 nM
NCI-H23 lung
  GI50: 257 nM
  TGI: 1570 nM
MCF7 breast
  GI50: 84.7 nM
  TGI: 949 nM
DU-145 prostate
  GI50: 1290 nM
  TGI: 22900 nM
CAKI-1 renal
  GI50: 229 nM
  TGI: 2150 nM
UACC-62 melanoma
  GI50: 68.7 nM
  TGI: 891 nM
SF-268 CNS
  GI50: 728 nM
  TGI: 3490 nM
RXF 393 renal
  GI50: 1730 nM
  TGI: 10700 nM
786-0 renal
  GI50: 355 nM
  TGI: 7360 nM
OVCAR-3 ovarian
  GI50: 232 nM
  TGI: 1180 nM
K-562 leukemia
  GI50: 268 nM
  TGI: 5650 nM
NCI-H522 lung
  GI50: 135 nM
  TGI: 544 nM
TK-10 renal
  GI50: 279 nM
  TGI: 1170 nM
A498 renal
  GI50: 381 nM
  TGI: 11500 nM
PC-3 prostate
  GI50: 1040 nM
  TGI: 50700 nM
HCC-2998 colon
  GI50: 150 nM
